From patent EP4810508A1, “ARABINOSE DERIVATIVE COMPOUND, AND COMPOSITION COMPRISING SAME FOR PREVENTING OR TREATING DEGENERATIVE BRAIN DISEASES” (Digmbio. Inc., priority 2023, dated 2025) come the findings set out here.

Where two headings read alike, the source gives them in different places.

Data set [1] has as its system male ICR mice. The data set can be described thus: Scopolamine-induced cognitive impairment model: passive avoidance test (PAT). The format is in vivo. The following applies: for percent recovery of memory in passive avoidance test (normal group = 100, scopolamine control = 0) at 50 mg/kg: Mus musculus, po, 168 h, read-out: in vivo(effect) PAT (%); for in vivo PAT: time staying in bright room (step-through latency). From the text:
(§1) A memory loss rodent animal model induced by scopolamine intraperitoneal administration is used, and an evaluation method for memory uses a Y-maze test and a passive avoidance test (PAT). Scopolamine is a representative experimental model showing an impairment of cognitive function similar to AD patients by blocking neurotransmitters when administered to an animal as an antagonist of a muscarinic acetylcholine receptor, and as a cognitive function evaluation technique, a Y-maze test and a passive avoidance experiment, which are general and representative methods, were used, and in order to objectify the efficacy levels of the compounds, a group administered with donepezil (Aricept, Eisa) as a positive control material was separately provided to compare the efficacy levels of the compounds.
(§2) In order to evaluate cognitive function, 5-week-old male ICR mice were used, the compounds to be evaluated were prepared at a dose of 50 mg/kg/ml and repeatedly orally administered at a predetermined time for 7 days, and the positive control material was carried out at 5 mg/kg/ml. After the last administration, after 30 minutes of intraperitoneal administration of 1 mg/kg/2 ml of scopolamine, a Y-maze test and a passive avoidance test, which are cognitive function evaluations, were performed.
In addition, the passive avoidance test was conducted using an avoidance learning box (Jeondo B&P, Korea, Seoul), and the avoidance learning box is divided into a dark room and a bright room, and when a laboratory animal is put into a bright room, the subject goes beyond the dark room. At the moment, an electric shock of 0.5 mA is applied for 5 seconds, and when the next day experimental animal is put back into a bright room, an electric shock in a dark room is memorized and stay in a bright room. In this case, a step-through latency is measured to evaluate memory. The efficacy of the compounds of the present invention against the normal group and the control group in the Y-maze test and the passive avoidance test was described in the following Table 3 (Scopolamine-induced cognitive impairment model result).

In data set [2] the test system is male ICR mice. In words: Scopolamine-induced cognitive impairment model: Y-maze test. The data set is classed as in vivo. The following applies: for percent recovery of cognitive function (Y-maze) at 50 mg/kg: Mus musculus, po, 168 h; for in vivo Y-maze (%): spontaneous alternation.
Text: as §1, §2
The Y-maze test is a method for evaluating the ability to sequentially act as an experiment for measuring short-term memory. The measurement equipment is composed of three branches, each branch has a length of 42 cm, a width of 3 cm, and a height of 12 cm, and an angle at which three branches are folded is 120°. Experimental animals are put into each branch for 8 minutes, and the number of times of entering the branches to the tail of the experimental animal and the case of being sequentially received in each branch are scored (actual alternation). The alternation behavior is defined as entering not to overlap all three, and is calculated by the following equation. [formula]

Data set [3] concerns HRE/Luc/HEK293 cells. In words: HRE (Hypoxia Response Element) luciferase assay. The data set is classed as cell-based, human. Conditions: for fold induction at 10 µM / fold induction at 100 µM: Homo sapiens; for HRE expression: low concentration of 1 µM. In outline:
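HRE-luciferase HEK293 cells in MEM/10% FBS pretreated with compound 6 h, then held under hypoxia (0.1% O2) 18 h; luminescence read after lysis. Scored as fold increase over vehicle, with twofold threshold at 100, 10 or 1 µM.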

Where [4] appears, read: scopolamine 1 mg/kg i.p., compounds 50 mg/kg oral for 7 days, donepezil 5 mg/kg (avg.).
The mark [5] stands for this setting: read-out: in vivo(effect) Y-maze (%).
[6] abbreviates: HEK293, 10uM, fold increase of HRE expression, hypoxic conditions (O2 0.1%) 18 hours, Table 2, read-out: HRE-increasing 10uM.
The mark [7] stands for this setting: HEK293, 100uM, fold increase of HRE expression, hypoxic conditions (O2 0.1%) 18 hours, Table 2, read-out: HRE-increasing 100uM.
Setting [8] is: HEK293, 18 h, 10uM, Table 2 (Examples 75-109, 114), read-out: HRE-inceasing 10uM.
The mark [9] stands for this setting: HEK293, 18 h, 100uM, Table 2 (Examples 75-109, 114), read-out: HRE-inceasing 100uM.
Setting [10] is: HEK293, 18 h, 10uM, Table 2 (Examples 37-74, 52), read-out: HKt-increasing 10uM.
The mark [11] stands for this setting: HEK293, 18 h, 100uM, Table 2 (Examples 37-74, 52), read-out: HKt-increasing 100uM.
[12] abbreviates: compounds 50 mg/kg, donepezil 5 mg/kg, orally for 7 days, scopolamine 1 mg/kg intraperitoneal.
Where [13] appears, read: effect compared to normal group (100) and control group (0), compounds 50 mg/kg oral for 7 days, donepezil 5 mg/kg (avg.).
Where [14] appears, read: range over experiment sets, donepezil 5 mg/kg oral for 7 days, scopolamine 1 mg/kg i.p.
Setting [15] is: range over experiment sets, effect compared to normal and control group, donepezil 5 mg/kg.

In the case of `O[C@@H]1[C@@H](O)[C@@H](Oc2ccc(Cc3ccsc3)cc2)OC[C@@H]1O` [Example 23, (2R,3R,4S,5S)-2-(4-(thiophen-3-ylmethyl)phenoxy)tetrahydro-2H-pyran-3,4,5-triol], the percent recovery of memory in passive avoidance test (normal group = 100, scopolamine control = 0) at 50 mg/kg in data set [1] was 22%. The “in vivo PAT” value in data set [1] (setting [4]) is 87 s. The percent recovery of cognitive function (Y-maze) at 50 mg/kg in data set [2] (setting [5]) is 41%. The “in vivo Y-maze (%)” value in data set [2] (setting [4]) was 59%. The fold induction at 10 µM in data set [3] (setting [6]) is 1.6. The fold induction at 100 µM in data set [3] (setting [7]) is 2.7.

Take `COc1ccc(Cc2cccc(O[C@H]3OC[C@H](O)[C@H](O)[C@H]3O)c2)cc1` [Example 25, (2R,3R,4S,5S)-2-(3-(4-methoxybenzyl)phenoxy)tetrahydro-2H-pyran-3,4,5-triol]: the percent recovery of memory in passive avoidance test (normal group = 100, scopolamine control = 0) at 50 mg/kg in data set [1] worked out at 1%. In addition, in data set [1] (setting [4]), the “in vivo PAT” value is 42 s. The percent recovery of cognitive function (Y-maze) at 50 mg/kg in data set [2] (read-out: cognitive function recovery compared to normal animals, Y-maze experiment (effect %)) is at least 50%; in data set [2] (setting [5]) it was 65%. Besides, in data set [2] (setting [4]), the “in vivo Y-maze (%)” value came out at 62%.

Take `O[C@@H]1[C@@H](O)[C@H](Oc2ccc(CN3CCCC3)cc2)OC[C@@H]1O` [Example 75, (2S,3R,4S,5S)-2-(4-(pyrrolidin-1-ylmethyl)phenoxy)tetrahydro-2H-pyran-3,4,5-triol]: the fold induction at 10 µM in data set [3] (setting [8]) was found to be 1. Moreover, the fold induction at 100 µM in data set [3] (setting [9]) came out at 1.

As to `CC(C)c1ccc(Oc2ccc(O[C@@H]3C[C@@H](O)[C@@H](O)CO3)cc2)cc1` [Example 66, (3S,4R,6R)-6-(4-(4-isopropylphenoxy)phenoxy)tetrahydro-2H-pyran-3,4-diol], the fold induction at 10 µM in data set [3] (setting [10]) is 2.9. The fold induction at 100 µM in data set [3] (setting [11]) is 2.2.

For `COc1ccc2oc(-c3ccc(O[C@H]4OC[C@@H](O)[C@H](O)[C@H]4O)cc3)nc2c1` [Example 93, (2R,3R,4S,5R)-2-(4-(5-methoxybenzo[d]oxazol-2-yl)phenoxy)tetrahydro-2H-pyran-3,4,5-triol], the fold induction at 10 µM in data set [3] (setting [8]) amounted to 2.8. In data set [3] (setting [9]), the fold induction at 100 µM amounted to 2.3.

For the molecule `COc1cc2c(cc1OC)C(=O)C(CC1CCN(Cc3ccccc3)CC1)C2` (centres unmarked) [donepezil, reference compound], in data set [1] (setting [12]), the “cognitive function recovery compared to normal animals, passive avoidance test (effect %)” value is listed as 94%. Also, in data set [1] (setting [13]), the “in vivo(effect) PAT (%)” value is recorded as 82%. Further, the “in vivo PAT (sec), range” value in data set [1] (setting [14]) is recorded as 173~251 sec. Besides, the “in vivo(effect) PAT (%), range” value in data set [1] (setting [15]) is 59-95%. Moreover, the “in vivo PAT” value in data set [1] (setting [4]) turned out to be 219 s. The “cognitive function recovery compared to normal animals, Y-maze experiment (effect %)” value in data set [2] (setting [12]) amounted to 35%. Moreover, the “in vivo(effect) Y-maze (%)” value in data set [2] (setting [13]) is reported as 72%. Moreover, in data set [2] (setting [14]), the “in vivo Y-maze (%), range” value is reported as 56-74%. For the same molecule, the “in vivo(effect) Y-maze (%), range” value in data set [2] (setting [15]) is 35-111%. Also, the “in vivo Y-maze (%)” value in data set [2] (setting [4]) is recorded as 67%.

Turning to `CC(C)c1cccc2nc(-c3cccc(O[C@H]4OC[C@H](O)[C@H](O)[C@H]4O)c3)oc12` [Example 97, (2R,3R,4S,5S)-2-(3-(7-isopropylbenzo[d]oxazol-2-yl)phenoxy)tetrahydro-2H-pyran-3,4,5-triol], the fold induction at 10 µM in data set [3] (setting [8]) was 1.1. In addition, the fold induction at 100 µM in data set [3] (setting [9]) was 1.2.

As to `CC(C)c1ccc2nc(-c3ccc(O[C@@H]4OC[C@H](O)[C@H](O)[C@H]4O)cc3)oc2c1` [Example 89, (2S,3R,4S,5S)-2-(4-(6-isopropylbenzo[d]oxazol-2-yl)phenoxy)tetrahydro-2H-pyran-3,4,5-triol], in data set [3] (setting [8]), the fold induction at 10 µM is 2.8. In data set [3] (setting [9]), the fold induction at 100 µM is under 1.

`COc1ccc2oc(-c3cccc(O[C@@H]4OC[C@H](O)[C@H](O)[C@H]4O)c3)nc2c1` [Example 106, (2S,3R,4S,5S)-2-(3-(5-methoxybenzo[d]oxazol-2-yl)phenoxy)tetrahydro-2H-pyran-3,4,5-triol]: in data set [3] (setting [8]), the fold induction at 10 µM came to 3.4. Moreover, the fold induction at 100 µM in data set [3] (setting [9]) was 1.7. In addition, the HRE expression entry in data set [3] was “more than threefold”.

Turning to `O[C@@H]1[C@@H](O)[C@H](Oc2ccc(Cc3cccnc3)cc2)OC[C@@H]1O` [Example 24, (2S,3R,4S,5S)-2-(4-(pyridin-3-ylmethyl)phenoxy)tetrahydro-2H-pyran-3,4,5-triol], the fold induction at 10 µM in data set [3] (setting [6]) is 1.1. The fold induction at 100 µM in data set [3] (setting [7]) turned out to be 1.1.

On to `CC(C)Oc1ccc(Cc2ccc(O[C@H]3OC[C@H](O)[C@H](O)[C@H]3O)cc2)cc1` [Example 44], for which the fold induction at 10 µM in data set [3] (setting [10]) was 1.1. In addition, in data set [3] (setting [11]), the fold induction at 100 µM came out at 1.3.

As to `COc1ccc2cc(-c3ccc(O[C@H]4OC[C@H](O)[C@H](O)[C@H]4O)cc3)oc2c1` [Example 81, (2R,3R,4S,5S)-2-(4-(6-methoxybenzofuran-2-yl)phenoxy)tetrahydro-2H-pyran-3,4,5-triol], the fold induction at 10 µM in data set [3] (setting [8]) is 2.7. The fold induction at 100 µM in data set [3] (setting [9]) was found to be 3.6.

`COc1ccc2oc(-c3ccc(O[C@@H]4OC[C@H](O)[C@H](O)[C@H]4O)c(Cl)c3)nc2c1` [Example 102, (2S,3R,4S,5S)-2-(2-chloro-4-(5-methoxybenzo[d]oxazol-2-yl)phenoxy)tetrahydro-2H-pyran-3,4,5-triol]: in data set [3] (setting [8]), the fold induction at 10 µM was found to be 3.1. In addition, the fold induction at 100 µM in data set [3] (setting [9]) was 1.8. The HRE expression entry in data set [3] is listed as “more than threefold”.

As for `O[C@@H]1[C@@H](O)[C@@H](Oc2ccc(Cc3ccc(OC(F)(F)F)cc3)cc2)OC[C@@H]1O` [Example 10], in data set [3] (10uM, fold increase of HRE expression, hypoxic conditions (O2 0.1%) 18 hours, Table 2), the “HRE-increasing 10uM” value is recorded as 1. For the same molecule, the “HRE-increasing 100uM” value in data set [3] (100uM, fold increase of HRE expression, hypoxic conditions (O2 0.1%) 18 hours, Table 2) is under 1. Besides, the HRE assay result in data set [3] (increase in HRE expression levels by the test substance relative to the vehicle in HRE/Luc/HEK293 cells) is reported as “•”.

Turning to `CC(C)c1ccc(Oc2ccc(O[C@H]3OC[C@H](O)[C@H](O)[C@H]3F)cc2)cc1` [Example 63, (3S,4S,5R,6R)-5-fluoro-6-(4-(4-isopropylphenoxy)phenoxy)tetrahydro-2H-pyran-3,4-diol], the fold induction at 10 µM in data set [3] (setting [10]) amounted to 2.4. In data set [3] (setting [11]), the fold induction at 100 µM amounted to 2.3.

On to `Cc1ccc2oc(-c3ccc(O[C@@H]4OC[C@H](O)[C@H](O)[C@H]4O)c(F)c3)nc2c1` [Example 104, (2S,3R,4S,5S)-2-(2-fluoro-4-(5-methylbenzo[d]oxazol-2-yl)phenoxy)tetrahydro-2H-pyran-3,4,5-triol], for which the fold induction at 10 µM in data set [3] (setting [8]) amounted to 3.6. Further, in data set [3] (setting [9]), the fold induction at 100 µM worked out at 2. For the same molecule, in data set [3], the HRE expression entry is reported as “more than threefold”.

As for `CC(C)c1ccc(-c2ccc(O[C@@H]3OC[C@H](O)[C@H](O)[C@H]3O)cc2)cc1` [Example 87, (2S,3R,4S,5S)-2-((4'-isopropyl-[1,1'-biphenyl]-4-yl)oxy)tetrahydro-2H-pyran-3,4,5-triol], the fold induction at 10 µM in data set [3] (setting [8]) amounted to 2.4. In addition, in data set [3] (setting [9]), the fold induction at 100 µM was found to be 3.1.
